{"source": "patent US9820483B2", "about": "“Microbial composition” (Rohm and Haas Company, priority 2011, dated 2017)", "tested_on": "E. coli ATCC #10536", "assay": "Synergy test: high resolution MBC microtiter plate assay in phosphate buffer containing 35% dipropylene glycol, 15 seconds contact", "format": "cell-based, Escherichia coli", "conditions": "E. coli 10536, complete kill in 15 seconds, phosphate buffer with 35% DPG", "text": "One measure of synergy is the industrially accepted method described by Kull, F. C.; Eisman. P. C.; Sylwestrowicz, H. D. and Mayer, R. L., in Applied Microbiology 9:538-541 (1961), using the ratio determined by the formula: Qa/QA÷Qb/QB=Synergy Index (“SI”) wherein: QA=concentration of compound A (first component) in percent, acting alone, which produced an end point (MBC of Compound A). […]=concentration of compound A in percent, in the mixture, which produced an end point. QB=concentration of compound B (second component) in percent, acting alone, which produced an end point (MBC of Compound B). Qb=concentration of compound B in percent, in the mixture, which produced an end point.\nWhen the sum of Qa/QA and Qb/QB is greater than one, antagonism is indicated. […] The lower the SI, the greater is the synergy shown by that particular mixture. The minimum biocidal concentration (MBC) of a microbicide is the lowest concentration tested under a specific set of conditions that provides complete kill of the tested microorganisms.\nSynergy tests were conducted using standard microtiter plate assays with phosphate buffer containing 35% dipropylene glycol (DPG). In this method, a wide range of combinations of chemicals was tested by conducting high resolution MBC assays of Component (A) in the presence of various concentrations of Component (B). High resolution MBCs were determined by adding varying amounts of microbicide to one column of a microtiter plate and doing subsequent ten-fold dilutions using an automated liquid handling system to obtain a series of closely spaced endpoints. The MBC plate was inoculated one column at a time with the test microorganism. An aliquot of the inoculated well was transferred at 15 seconds to a plate containing a neutralizing agent (D/E Neutralizing Broth), mixed and held for 5 minutes before being transferred to a growth plate containing trypticase soy broth (TSB). The TSB plate was incubated at 37° C. and read for the presence/absence of growth at 24 hours. The lowest level tested that provided complete kill (as evidenced by no growth in the microtitre plate) of the test organisms in 15 seconds is the minimum biocidal concentration (MBC).\nThe synergy of the combinations of the present invention was determined against a bacterium, Esherichia coli (E. coli—ATCC #10536), at a concentration of approximately 1×10^8 bacteria per mL. This microorganism is representative of natural contaminants in many consumer and industrial applications."}
{"smiles": "C=C(C)C1CCC(C)C(O)C1", "note": "(stereo not shown) [2-methyl-5-(prop-1-en-2-yl)cyclohexanol]", "values": [{"measurement": "MBC of the component acting alone (QA or QB; Qa or Qb with the other component at 0)", "result": 0.5, "unit": "weight %"}]}
